In patent US20250034216A1, “STEREOSELECTIVE COVALENT LIGANDS FOR ONCOGENIC AND IMMUNOLOGICAL PROTEINS” (The Scripps Research Institute, priority 2021, published 2025):

Legend:
Test in all cases: IA-DTB cysteine engagement
Assay type in all cases: binding
Settings in all cases: 22Rv1 cells, 20 μM probe, 1 h, relative to DMSO
[1] = biological target: T1, APOOL_C74 (Homo sapiens, UniProt Q6UXV4)
T1 construct: endogenous in cells; host or cells: 22Rv1
T1 sequence (Q6UXV4 28-268): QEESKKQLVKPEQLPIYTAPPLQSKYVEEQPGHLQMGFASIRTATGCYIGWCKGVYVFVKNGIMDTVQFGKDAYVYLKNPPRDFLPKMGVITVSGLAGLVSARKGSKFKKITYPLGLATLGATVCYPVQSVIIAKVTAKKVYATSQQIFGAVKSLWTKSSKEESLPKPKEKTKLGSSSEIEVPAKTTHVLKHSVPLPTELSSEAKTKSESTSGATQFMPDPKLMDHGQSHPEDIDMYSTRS
Procedure, shortened: (§1)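 In-situ probe treatment of cells; lysate 2 mg/mL, IA-DTB 1 h RT; MeOH/CHCl3 precipitation, DTT/iodoacetamide, trypsin; streptavidin enrichment; TMT labeling, high-pH fractionation. Ratio = TMT reporter intensity / mean DMSO channels, median-normalized.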

[2] = biological target: T2, GNPAT_C122 (Homo sapiens, UniProt O15228)
T2 construct: endogenous in cells; host or cells: 22Rv1
T2 sequence (O15228 1-680): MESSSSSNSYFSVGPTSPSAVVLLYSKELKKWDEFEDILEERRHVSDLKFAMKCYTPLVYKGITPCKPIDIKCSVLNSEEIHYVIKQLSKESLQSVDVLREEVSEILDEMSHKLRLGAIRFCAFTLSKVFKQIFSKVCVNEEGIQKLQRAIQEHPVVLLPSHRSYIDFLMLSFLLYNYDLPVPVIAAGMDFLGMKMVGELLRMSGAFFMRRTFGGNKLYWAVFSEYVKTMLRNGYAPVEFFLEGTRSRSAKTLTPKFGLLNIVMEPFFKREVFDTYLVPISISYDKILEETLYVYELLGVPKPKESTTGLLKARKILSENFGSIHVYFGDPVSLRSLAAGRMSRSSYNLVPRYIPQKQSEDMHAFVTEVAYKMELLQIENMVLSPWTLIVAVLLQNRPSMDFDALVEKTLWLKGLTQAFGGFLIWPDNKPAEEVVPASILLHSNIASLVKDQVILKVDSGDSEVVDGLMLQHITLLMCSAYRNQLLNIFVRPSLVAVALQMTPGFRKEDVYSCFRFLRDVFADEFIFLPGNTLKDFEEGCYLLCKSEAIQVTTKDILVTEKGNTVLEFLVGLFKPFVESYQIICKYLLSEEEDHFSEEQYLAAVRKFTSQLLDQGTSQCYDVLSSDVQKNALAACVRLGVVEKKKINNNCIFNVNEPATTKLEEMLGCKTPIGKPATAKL
Procedure, shortened: as §1

[3] = biological target: T3, PDP1_C149 (Homo sapiens, UniProt Q9P0J1)
T3 construct: endogenous in cells; host or cells: 22Rv1
T3 sequence (Q9P0J1 72-537): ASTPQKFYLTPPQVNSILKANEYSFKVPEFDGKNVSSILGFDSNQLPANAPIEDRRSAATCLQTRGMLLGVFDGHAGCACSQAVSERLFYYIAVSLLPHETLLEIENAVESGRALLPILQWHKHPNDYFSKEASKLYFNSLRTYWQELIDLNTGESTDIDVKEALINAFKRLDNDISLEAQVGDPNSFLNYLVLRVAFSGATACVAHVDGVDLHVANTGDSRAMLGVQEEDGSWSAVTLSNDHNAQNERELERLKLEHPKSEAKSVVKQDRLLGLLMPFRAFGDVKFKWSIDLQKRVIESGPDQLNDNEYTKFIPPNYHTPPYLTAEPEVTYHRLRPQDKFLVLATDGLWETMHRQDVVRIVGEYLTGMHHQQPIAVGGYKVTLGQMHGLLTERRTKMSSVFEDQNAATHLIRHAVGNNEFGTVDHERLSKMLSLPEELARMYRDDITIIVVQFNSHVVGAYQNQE
Procedure, shortened: as §1

Row | % engagement APOOL_C74 [1] | % engagement GNPAT_C122 [2] | % engagement PDP1_C149 [3] | Compound
1 | 71.25% | 51.5% | 37.25% | C=CC(=O)N1C[C@H](c2ccc(Br)cc2)[C@H]1C(=O)Nc1cccc2cccnc12 [MY-3B, (2S,3S)-1-acryloyl-3-(4-bromophenyl)-N-(quinolin-8-yl)azetidine-2-carboxamide]
2 | 64.5% | 74.5% | 37.25% | C=CC(=O)N1C[C@H](c2ccc(Br)cc2)[C@@H]1C(=O)Nc1cccc2cccnc12 [MY-1B, (2R,3S)-1-acryloyl-3-(4-bromophenyl)-N-(quinolin-8-yl)azetidine-2-carboxamide]
3 | 52% | 35.5% | 19.25% | C=CC(=O)N1C[C@H](c2ccc(Br)cc2)[C@H]1C(=O)Nc1cccc2cccnc12 [MY-3A, (2S,3S)-1-acryloyl-3-(4-bromophenyl)-N-(quinolin-8-yl)azetidine-2-carboxamide]
4 | 52.75% | 70.5% | 67% | C=CC(=O)N1C[C@@H](c2ccc(Br)cc2)[C@H]1C(=O)Nc1cccc2cccnc12 [MY-1A, (2S,3R)-1-acryloyl-3-(4-bromophenyl)-N-(quinolin-8-yl)azetidine-2-carboxamide]
